Data on 18 compounds can be found in patent US12509444B2, “Compounds and methods for CD73 modulation and indications therefor” (Plexxikon Inc., priority 2019, dated 2025).

SMILES strings stand for the structures.

A word on the IC50: it is the point on the concentration scale where inhibition reaches its midpoint.

One assay has as its target T1, human CD73 (Homo sapiens, UniProt P21589).
T1 construct: expressed in transfected cells
T1 sequence (P21589 27-549): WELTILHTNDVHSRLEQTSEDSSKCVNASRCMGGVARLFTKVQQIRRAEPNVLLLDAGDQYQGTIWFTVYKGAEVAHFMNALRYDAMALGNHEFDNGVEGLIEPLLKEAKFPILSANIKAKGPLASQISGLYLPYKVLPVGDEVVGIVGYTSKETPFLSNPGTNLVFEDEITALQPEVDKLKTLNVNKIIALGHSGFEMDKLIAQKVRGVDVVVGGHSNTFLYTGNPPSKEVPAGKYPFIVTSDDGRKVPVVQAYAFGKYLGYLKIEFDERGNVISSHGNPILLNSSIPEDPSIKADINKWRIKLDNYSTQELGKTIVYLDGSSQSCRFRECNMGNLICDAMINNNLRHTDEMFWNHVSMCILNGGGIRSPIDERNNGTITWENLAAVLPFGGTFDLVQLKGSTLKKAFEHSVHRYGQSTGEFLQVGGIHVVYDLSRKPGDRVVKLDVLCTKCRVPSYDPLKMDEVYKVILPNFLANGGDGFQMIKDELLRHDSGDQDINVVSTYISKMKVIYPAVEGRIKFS
In words: Inhibitor activity against CD73 in cell based assay (CD73 expressing CHO-K1 cells). To be noted: CHO-K1 cells expressing human CD73, 150 μM AMP, 4 hours of incubation; read-out: CHO-K1 CELL VARIANT: CD73 IC50. Put shortly:
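Residual supernatant AMP was quantified via CellTiter-Glo luminescence (1 μM ATP added, 30 min, room temperature) after a 4 h exposure of human CD73-expressing CHO-K1 cells to 150 μM AMP plus compound, top final 10 μM, 8 points. IC50 came from nonlinear regression of percent inhibition.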

Assay [1] deals with T2, Human CD73 (amino acid residues 27-549) (Homo sapiens, UniProt P21589).
T2 construct: Human CD73 (amino acid residues 27-549); His tag (N); made in house; host or cells: E. coli
T2 sequence (P21589 27-549): T1 sequence (P21589 27-549)
Nature of the assay: CD73 enzymatic assay (luciferase-based indirect assay, CellTiter-Glo). The assay is classed as biochemical. To be noted: 0.4 nM CD73, 150 μM AMP, 1 hour at room temperature. Put shortly: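 Residual AMP inhibits luciferase, so luminescence reports CD73 turnover; read with CellTiter-Glo 2.0 plus 1 μM final ATP, 30 min. Reaction used 0.4 nM N-His CD73 (27-549, E. coli), 150 μM AMP, HEPES pH 7.4 with Tween 20, 1 h at room temperature. IC50 fitted by nonlinear regression.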
Background: Cellular ATP, detected with luciferase, serves as a proxy for viable cell number.

For the compound `O=C(N[C@H]1CC[C@H](NS(=O)(=O)c2cccnc2)CC1)O[C@@H]1CCN(c2cn[nH]c(=O)c2Cl)C1` [P-0295, (R)-1-(5-chloro-6-oxo-1,6-dihydropyridazin-4-yl)pyrrolidin-3-yl ((1r,4R)-4-(pyridine-3-sulfonamido)cyclohexyl) carbamate], the IC50 (on human CD73; in assay [1]) was 0.001 to 10 µM in each case.

On to `O=C(N[C@H]1CC[C@H](NS(=O)(=O)c2ccc3ncsc3c2)CC1)O[C@@H]1CCN(c2cn[nH]c(=O)c2Cl)C1` [P-0296, (R)-1-(5-chloro-6-oxo-1,6-dihydropyridazin-4-yl)pyrrolidin-3-yl ((1r,4R)-4-(benzo[d]thiazole-6-sulfonamido)cyclohexyl) carbamate], for which the IC50 (on human CD73; in assay [1]) was 0.001 to 10 µM in each case.

For the compound `O=C(N[C@H]1CC[C@H](NS(=O)(=O)c2c(F)cccc2F)CC1)O[C@@H]1CCN(c2cn[nH]c(=O)c2Cl)C1` [P-0297, (R)-1-(5-chloro-6-oxo-1,6-dihydropyridazin-4-yl)pyrrolidin-3-yl ((1r,4R)-4-((2,6-difluorophenyl)sulfonamido)cyclohexyl)carbamate], the IC50 (on human CD73; in assay [1]) was 0.001 to 10 µM each time.

As for `O=C(N[C@H]1CC[C@H](NS(=O)(=O)c2cc(F)ccc2F)CC1)O[C@@H]1CCN(c2cn[nH]c(=O)c2Cl)C1` [P-0298, (R)-1-(5-chloro-6-oxo-1,6-dihydropyridazin-4-yl)pyrrolidin-3-yl ((1r,4R)-4-((2,5-difluorophenyl)sulfonamido)cyclohexyl)carbamate], the IC50 (at human CD73; in assay [1]) was 0.001 to 10 µM in each case.

Consider `O=C(N[C@H]1CC[C@H](NS(=O)(=O)c2ccsc2)CC1)O[C@@H]1CCN(c2cn[nH]c(=O)c2Cl)C1` [P-0299, (R)-1-(5-chloro-6-oxo-1,6-dihydropyridazin-4-yl)pyrrolidin-3-yl ((1r,4R)-4-(thiophene-3-sulfonamido)cyclohexyl) carbamate], for which the IC50 (at human CD73; in assay [1]) was 0.001 to 10 µM throughout.

On to `O=C(N[C@H]1CC[C@H](NS(=O)(=O)c2cccs2)CC1)O[C@@H]1CCN(c2cn[nH]c(=O)c2Cl)C1` [P-0300, (R)-1-(5-chloro-6-oxo-1,6-dihydropyridazin-4-yl)pyrrolidin-3-yl ((1r,4R)-4-(thiophene-2-sulfonamido)cyclohexyl) carbamate], for which the IC50 (on human CD73; in assay [1]) was 0.001 to 10 µM in each case.

Take `O=C(N[C@H]1CC[C@H](NS(=O)(=O)c2ccc(Cl)s2)CC1)O[C@@H]1CCN(c2cn[nH]c(=O)c2Cl)C1` [P-0301, (R)-1-(5-chloro-6-oxo-1,6-dihydropyridazin-4-yl)pyrrolidin-3-yl ((1r,4R)-4-((5-chlorothiophene)-2-sulfonamido)cyclohexyl) carbamate]: the IC50 (at human CD73; in assay [1]) was 0.001 to 10 µM each time.

For the compound `Cc1noc(C)c1S(=O)(=O)N[C@H]1CC[C@H](NC(=O)O[C@@H]2CCN(c3cn[nH]c(=O)c3Cl)C2)CC1` [P-0302, (R)-1-(5-chloro-6-oxo-1,6-dihydropyridazin-4-yl)pyrrolidin-3-yl ((1r,4R)-4-((3,5-dimethylisoxazole)-4-sulfonamido)cyclohexyl) carbamate], the IC50 (on human CD73; in assay [1]) was 0.001 to 10 µM in each case.

Turning to `COCCS(=O)(=O)N[C@H]1CC[C@H](NC(=O)O[C@@H]2CCN(c3cn[nH]c(=O)c3Cl)C2)CC1` [P-0303, (R)-1-(5-chloro-6-oxo-1,6-dihydropyridazin-4-yl)pyrrolidin-3-yl ((1r,4R)-4-((2-methoxyethyl)sulfonamido)cyclohexyl)carbamate], the IC50 (on human CD73; in assay [1]) was 0.001 to 10 µM throughout.

Regarding `O=C(N[C@H]1CC[C@H](NS(=O)(=O)CCC(F)(F)F)CC1)O[C@@H]1CCN(c2cn[nH]c(=O)c2Cl)C1` [P-0304, (R)-1-(5-chloro-6-oxo-1,6-dihydropyridazin-4-yl)pyrrolidin-3-yl ((1r,4R)-4-((3,3,3-trifluoropropyl)sulfonamido)cyclohexyl)carbamate], the IC50 (at human CD73; in assay [1]) was 0.001 to 10 µM each time.

As to `O=C(N[C@H]1CC[C@H](NS(=O)(=O)CC(F)(F)F)CC1)O[C@@H]1CCN(c2cn[nH]c(=O)c2Cl)C1` [P-0305, (R)-1-(5-chloro-6-oxo-1,6-dihydropyridazin-4-yl)pyrrolidin-3-yl ((1r,4R)-4-((2,2,2-trifluoroethyl)sulfonamido)cyclohexyl)carbamate], the half-inhibitory concentration (IC50) (on human CD73; in assay [1]) was 0.001 to 10 µM in each case.

Turning to `O=C(N[C@H]1CC[C@H](NS(=O)(=O)Cc2ccccc2)CC1)O[C@@H]1CCN(c2cn[nH]c(=O)c2Cl)C1` [P-0306, (R)-1-(5-chloro-6-oxo-1,6-dihydropyridazin-4-yl)pyrrolidin-3-yl ((1r,4R)-4-((phenylmethyl)sulfonamido)cyclohexyl)carbamate], the IC50 (on human CD73; in assay [1]) was 0.001 to 10 µM each time.

With `N#CCS(=O)(=O)N[C@H]1CC[C@H](NC(=O)O[C@@H]2CCN(c3cn[nH]c(=O)c3Cl)C2)CC1` [P-0307, (R)-1-(5-chloro-6-oxo-1,6-dihydropyridazin-4-yl)pyrrolidin-3-yl ((1r,4R)-4-((cyanomethyl)sulfonamido)cyclohexyl)carbamate], the IC50 (at human CD73; in assay [1]) was 0.001 to 10 µM throughout.

Consider `C=CS(=O)(=O)N[C@H]1CC[C@H](NC(=O)O[C@@H]2CCN(c3cn[nH]c(=O)c3Cl)C2)CC1` [P-0308, (R)-1-(5-chloro-6-oxo-1,6-dihydropyridazin-4-yl)pyrrolidin-3-yl ((1r,4R)-4-(vinylsulfonamido)cyclohexyl) carbamate], for which the IC50 (on human CD73; in assay [1]) was 0.001 to 10 µM in each case.

As for `O=C(N[C@H]1CC[C@H](NS(=O)(=O)c2c[nH]cn2)CC1)O[C@@H]1CCN(c2cn[nH]c(=O)c2Cl)C1` [P-0309, (R)-1-(5-chloro-6-oxo-1,6-dihydropyridazin-4-yl)pyrrolidin-3-yl ((1r,4R)-4-(1H-imidazole-4-sulfonamido)cyclohexyl) carbamate], the IC50 (on human CD73; in assay [1]) was 0.001 to 10 µM each time.

With `CN1CCN(S(=O)(=O)N[C@H]2CC[C@H](NC(=O)O[C@@H]3CCN(c4cn[nH]c(=O)c4Cl)C3)CC2)CC1` [P-0310, (R)-1-(5-chloro-6-oxo-1,6-dihydropyridazin-4-yl)pyrrolidin-3-yl ((1r,4R)-4-((4-methylpiperazine)-1-sulfonamido)cyclohexyl) carbamate], the IC50 (on human CD73; in assay [1]) was 0.001 to 10 µM each time.

`CC(C)NS(=O)(=O)N[C@H]1CC[C@H](NC(=O)O[C@@H]2CCN(c3cn[nH]c(=O)c3Cl)C2)CC1` [P-0311, (R)-1-(5-chloro-6-oxo-1,6-dihydropyridazin-4-yl)pyrrolidin-3-yl ((1r,4R)-4-((N-isopropylsulfamoyl)amino)cyclohexyl)carbamate]: the IC50 (at human CD73; in assay [1]) was 0.001 to 10 µM throughout.

On to `CNS(=O)(=O)N[C@H]1CC[C@H](NC(=O)O[C@@H]2CCN(c3cn[nH]c(=O)c3Cl)C2)CC1` [P-0312, (R)-1-(5-chloro-6-oxo-1,6-dihydropyridazin-4-yl)pyrrolidin-3-yl ((1r,4R)-4-((N-methylsulfamoyl)amino)cyclohexyl)carbamate], for which the IC50 (on human CD73; in assay [1]) was 0.001 to 10 µM in each case.
